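Grown in 96-well plates, cells were treated for 48 hours with each compound at five concentrations. Insufficient inhibition: endpoint recorded as highest concentration tested. Here, GI50 denotes the concentration required for 50% inhibition of growth. At the TGI there is no net growth.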
Experiments:
Assay in all cases: NCI anticancer screen, dose series, 48 h
786-0 renal = system: 786-0 renal
A498 renal = system: A498 renal
A549 NSCLC = system: A549 NSCLC
ACHN renal = system: ACHN renal
BT-549 breast = system: BT-549 breast
CAKI-1 renal = system: CAKI-1 renal
CCRF-CEM leukemia = system: CCRF-CEM leukemia
COLO 205 colon = system: COLO 205 colon
DU-145 prostate = system: DU-145 prostate
EKVX NSCLC = system: EKVX NSCLC
HCC-2998 colon = system: HCC-2998 colon
HCT-116 colon = system: HCT-116 colon
HCT-15 colon = system: HCT-15 colon
HL-60(TB) leukemia = system: HL-60(TB) leukemia
HOP-62 NSCLC = system: HOP-62 NSCLC
HOP-92 NSCLC = system: HOP-92 NSCLC
HS 578T breast = system: HS 578T breast
HT29 colon = system: HT29 colon
IGROV1 ovarian = system: IGROV1 ovarian
K-562 leukemia = system: K-562 leukemia
KM12 colon = system: KM12 colon
LOX IMVI melanoma = system: LOX IMVI melanoma
M14 melanoma = system: M14 melanoma
MALME-3M melanoma = system: MALME-3M melanoma
MCF7 breast = system: MCF7 breast
MDA-MB-231 breast = system: MDA-MB-231 breast
MDA-MB-435 = system: MDA-MB-435
MOLT-4 leukemia = system: MOLT-4 leukemia
NCI-H226 lung = system: NCI-H226 lung
NCI-H23 lung = system: NCI-H23 lung
NCI-H460 lung = system: NCI-H460 lung
NCI-H522 lung = system: NCI-H522 lung
NCI/ADR-RES ovarian = system: NCI/ADR-RES ovarian
OVCAR-4 ovarian = system: OVCAR-4 ovarian
OVCAR-5 ovarian = system: OVCAR-5 ovarian
OVCAR-8 ovarian = system: OVCAR-8 ovarian
PC-3 prostate = system: PC-3 prostate
RPMI-8226 leukemia = system: RPMI-8226 leukemia
RXF 393 renal = system: RXF 393 renal
SF-268 CNS = system: SF-268 CNS
SF-295 CNS = system: SF-295 CNS
SF-539 CNS = system: SF-539 CNS
SK-MEL-2 melanoma = system: SK-MEL-2 melanoma
SK-MEL-28 melanoma = system: SK-MEL-28 melanoma
SK-MEL-5 melanoma = system: SK-MEL-5 melanoma
SK-OV-3 ovarian = system: SK-OV-3 ovarian
SN12C renal = system: SN12C renal
SNB-19 CNS = system: SNB-19 CNS
SNB-75 CNS = system: SNB-75 CNS
SR leukemia = system: SR leukemia
SW-620 colon = system: SW-620 colon
T-47D breast = system: T-47D breast
TK-10 renal = system: TK-10 renal
U251 CNS = system: U251 CNS
UACC-257 melanoma = system: UACC-257 melanoma
UACC-62 melanoma = system: UACC-62 melanoma
UO-31 renal = system: UO-31 renal

`Nn1c(=O)n(-c2cccc(C(F)(F)F)c2)c(=O)c2cc(-c3ccc(F)cc3F)ccc21` showed a GI50 (786-0 renal) of 2.14 µM, a TGI (786-0 renal) of 5.26 µM and a GI50 (A498 renal) of 0.327 µM. For the same compound, the TGI (A498 renal) was 1.3 µM, the GI50 (A549 NSCLC) was 2.71 µM and the TGI (A549 NSCLC) was 12.5 µM. For the same compound, the GI50 (ACHN renal) was 2.4 µM, the TGI (ACHN renal) was 10.3 µM and the GI50 (BT-549 breast) was 0.667 µM. The TGI (BT-549 breast) was 2.14 µM, the GI50 (CAKI-1 renal) was 1.5 µM and the TGI (CAKI-1 renal) was 5.14 µM. It also gave a GI50 (CCRF-CEM leukemia) of 1.14 µM, a TGI (CCRF-CEM leukemia) of 6.85 µM and a GI50 (COLO 205 colon) of 1.94 µM. The TGI (COLO 205 colon) was 3.67 µM, the GI50 (DU-145 prostate) was 3.06 µM and the TGI (DU-145 prostate) was 17.7 µM. The GI50 (EKVX NSCLC) was 2.48 µM, the TGI (EKVX NSCLC) was 8.79 µM and the GI50 (HCC-2998 colon) was 2.77 µM. It also gave a TGI (HCC-2998 colon) of 9.96 µM, a GI50 (HCT-116 colon) of 0.841 µM and a TGI (HCT-116 colon) of 2.29 µM. For the same compound, the GI50 (HCT-15 colon) was 0.649 µM, the TGI (HCT-15 colon) was 2.69 µM and the GI50 (HL-60(TB) leukemia) was 1.75 µM. It also gave a TGI (HL-60(TB) leukemia) of 8.76 µM, a GI50 (HOP-62 NSCLC) of 1.9 µM and a TGI (HOP-62 NSCLC) of 4.6 µM. The GI50 (HOP-92 NSCLC) was 0.137 µM, the TGI (HOP-92 NSCLC) was 0.523 µM and the GI50 (HS 578T breast) was 1.19 µM. The TGI (HS 578T breast) was 5.43 µM, the GI50 (HT29 colon) was 3.49 µM and the TGI (HT29 colon) was 13.9 µM. For the same compound, the GI50 (IGROV1 ovarian) was 1.83 µM, the TGI (IGROV1 ovarian) was 27.7 µM and the GI50 (K-562 leukemia) was 0.949 µM. It also gave a TGI (K-562 leukemia) of 14.8 µM, a GI50 (KM12 colon) of 2.44 µM and a TGI (KM12 colon) of 6.6 µM. The GI50 (LOX IMVI melanoma) was 1.49 µM, the TGI (LOX IMVI melanoma) was 3.13 µM and the GI50 (M14 melanoma) was 1.54 µM. It also gave a TGI (M14 melanoma) of 4.33 µM, a GI50 (MALME-3M melanoma) of 1.54 µM and a TGI (MALME-3M melanoma) of 5.3 µM. For the same compound, the GI50 (MCF7 breast) was 1.61 µM, the TGI (MCF7 breast) was 7.08 µM and the GI50 (MDA-MB-231 breast) was 1.9 µM. The TGI (MDA-MB-231 breast) was 6.13 µM, the GI50 (MDA-MB-435) was 1.66 µM and the TGI (MDA-MB-435) was 6.45 µM. The GI50 (MOLT-4 leukemia) was 2.05 µM, the TGI (MOLT-4 leukemia) was 6.12 µM and the GI50 (NCI-H226 lung) was 1.53 µM. It also gave a TGI (NCI-H226 lung) of 4.84 µM, a GI50 (NCI-H23 lung) of 1.08 µM and a TGI (NCI-H23 lung) of 4.2 µM. The GI50 (NCI-H460 lung) was 0.776 µM, the TGI (NCI-H460 lung) was 8.03 µM and the GI50 (NCI-H522 lung) was 0.39 µM. For the same compound, the TGI (NCI-H522 lung) was 2.55 µM, the GI50 (NCI/ADR-RES ovarian) was 1.84 µM and the TGI (NCI/ADR-RES ovarian) was 9.17 µM. The GI50 (OVCAR-4 ovarian) was 2.55 µM, the TGI (OVCAR-4 ovarian) was over 100 µM and the GI50 (OVCAR-5 ovarian) was 3.51 µM. For the same compound, the TGI (OVCAR-5 ovarian) was 19 µM, the GI50 (OVCAR-8 ovarian) was 1.22 µM and the TGI (OVCAR-8 ovarian) was 6.52 µM. It also gave a GI50 (PC-3 prostate) of 0.653 µM, a TGI (PC-3 prostate) of 4.14 µM and a GI50 (RPMI-8226 leukemia) of 0.319 µM. It also gave a TGI (RPMI-8226 leukemia) of 1.52 µM, a GI50 (RXF 393 renal) of 1.12 µM and a TGI (RXF 393 renal) of 3.11 µM. For the same compound, the GI50 (SF-268 CNS) was 1.91 µM, the TGI (SF-268 CNS) was 10.9 µM and the GI50 (SF-295 CNS) was 1.76 µM. For the same compound, the TGI (SF-295 CNS) was 3.76 µM, the GI50 (SF-539 CNS) was 1.73 µM and the TGI (SF-539 CNS) was 8.23 µM. For the same compound, the GI50 (SK-MEL-2 melanoma) was 0.449 µM, the TGI (SK-MEL-2 melanoma) was 2.07 µM and the GI50 (SK-MEL-28 melanoma) was 1.45 µM. For the same compound, the TGI (SK-MEL-28 melanoma) was 6.65 µM, the GI50 (SK-MEL-5 melanoma) was 0.338 µM and the TGI (SK-MEL-5 melanoma) was 1.24 µM. It also gave a GI50 (SK-OV-3 ovarian) of 1.29 µM, a TGI (SK-OV-3 ovarian) of 3.39 µM and a GI50 (SN12C renal) of 0.991 µM. The TGI (SN12C renal) was 5.36 µM, the GI50 (SNB-19 CNS) was 1.07 µM and the TGI (SNB-19 CNS) was 13.3 µM. It also gave a GI50 (SNB-75 CNS) of 1.67 µM, a TGI (SNB-75 CNS) of 6.37 µM and a GI50 (SR leukemia) of 1.21 µM. It also gave a TGI (SR leukemia) of 5.94 µM, a GI50 (SW-620 colon) of 1.62 µM and a TGI (SW-620 colon) of 4.41 µM. For the same compound, the GI50 (T-47D breast) was 1.69 µM, the TGI (T-47D breast) was 7.02 µM and the GI50 (TK-10 renal) was 4.07 µM. The TGI (TK-10 renal) was 8.74 µM, the GI50 (U251 CNS) was 1.51 µM and the TGI (U251 CNS) was 9.92 µM. It also gave a GI50 (UACC-257 melanoma) of 1.05 µM, a TGI (UACC-257 melanoma) of 3.97 µM and a GI50 (UACC-62 melanoma) of 0.296 µM. For the same compound, the TGI (UACC-62 melanoma) was 1.14 µM, the GI50 (UO-31 renal) was 2.27 µM and the TGI (UO-31 renal) was 8.8 µM.
